This is an account of results in patent EP0339504A2, “Human immunodeficiency virus (HIV) env-coded peptide capable of eliciting HIV-inhibiting antibodies in mammals” (priority 1988, dated 1989).

One experiment concerns guinea pigs. Kind of experiment: Immunization of guinea pigs with peptide-carrier protein conjugate; anti-peptide antibodies by ELISA. The format is in vivo, guinea pig. As to the method:
Peptides were conjugated to either ovalbumin or keyhole limpet hemocyanin prior to immunization. For ELISA studies, human serum albumin (HSA) was used as the carrier protein. Carrier protein (2 mg/ml) was activated with 0.5% glutaraldehyde for 30 to 60 min at room temperature, then an equal volume of the peptide solution (2 mg/ml in dimethylsulfoxide) was added. The reaction took place overnight at 4°C, following which the reaction mixture was dialyzed overnight against deionized water or 0.1 M glycine, pH 7.0 in the case of human serum albumin.
Guinea pigs and rabbits were immunized following standard immunization protocols. Guinea pigs and rabbits were immunized initially with 100 to 200 µg of the peptide-carrier protein conjugate in complete Freund's adjuvant, and boosted using half the amount of peptide-carrier protein conjugate in incomplete Freund's adjuvant every two weeks thereafter. Serum samples were obtained at every other boost.
All of the peptides listed in Table 1 were conjugated to a carrier protein (either keyhole limpet hemocyanin or ovalbumin) and each peptide-carrier protein conjugate was used to immunize two guinea pigs. Guinea pigs were selected as a convenient test animal system. The resultant guinea pig antiserum samples were monitored for anti-peptide reactivity using ELISA procedures. […] A time point of six months was selected for testing the antiviral (i.e, HIV neutralizing and cell fusion-blocking) characteristics of the guinea pig antisera.
Although different levels of antibodies were produced, there was no case where only one animal from the pair produced antibodies.

The next experiment concerns HIV-1 IIIB. Kind of experiment: HIV neutralization assay with anti-peptide sera (p24 antigen in Molt 4 culture supernatant). The format is cell-based. The settings on record: Molt 4 cells, day six.
Experiment [1] deals with CEM cells chronically infected with HIV-1 IIIB. Kind of experiment: Cell fusion assay with anti-peptide sera (giant cell count). It counts as cell-based. The settings on record: 1:10 serum dilution, control sera 50,65.
Method: Briefly, 5000 CEM cells chronically infected with HIV-1 IIIB or HIV-1 RF were mixed with 75,000 Molt 4 cells in a volume of 100 µl in a 96 well half-area plate. Final dilution of sera in the assay was 1 to 20. Twenty-four hours later giant cells were visually enumerated at a 40x magnification.
Experiment [2] deals with antibodies from human HIV-1 seropositive serum samples. Kind of experiment: ELISA detection of binding of human antibodies to immobilized synthetic peptides. The settings on record: wells blocked with diluent 1 hour before use. For orientation: ELISA stands for enzyme-linked immunosorbent assay.
Method: Synthetic peptides were immobilized directly on Immulon®-II microtiter plates using glutaraldehyde. The plates were activated with 2% glutaraldehyde for 2 hrs at room temperature or 0.1% glutaraldehyde for 30 min and rinsed with deionized water. Two conditions of glutaraldehyde treatment were used routinely; the 2% glutaraldehyde was used to ensure adequate binding of the peptide to the plate and the 0.1% glutaraldehyde to avoid alteration of the binding sites. Peptide solutions of 100 µl containing 10 µg/ml in 60 mM bicarbonate buffer, pH 9.6, were added per well and incubated overnight at 4°C. The plates were washed and blocked with PBST (phosphate buffered saline + 0.05% Tween® 10) for 1 hr at 37°C and stored dry at 4°C.
This procedure was used to assure immobilization of the peptide to the microtiter plate. The peptide-HSA conjugate was immobilized on the microtiter plate well using the procedure above, except that glutaraldehyde was not included in the reaction.
Immediately before use, where indicated, the plates were blocked again with 100 µl of diluent (PBST + 5% bovine serum albumin + 20% heat inactivated normal goat serum + 0.1% sodium azide + 0.05% thimerosal) for 30 to 60 min at 37°C. […] The optical density or absorbance of the reaction was determined using a microtiter plate reader. […]

On to “peptide 1-80: aa number 418 to 432 of HIV-1 IIIB env-coded protein (CRIKQIINMWQKVGK; Surface protein gp120; UniProt P04578 418-432, looked up, fragment)”, for which the “LIMITING DILUTION” value in the experiment on guinea pigs (anti-peptide ELISA of guinea pig antiserum, 6 month bleed, dilution at which an absorbance of 0.1 would be obtained, one row per animal) is 30; with guinea pigs (rows marked + : guinea pig antiserum, 2-5 month bleed, dilution giving absorbance 0.1), less than 20. The “level of anti-peptide antibodies elicited (in words)” value in the experiment on guinea pigs (by 6 months following the first immunization) is given as “elicited very low levels of anti-peptide antibodies”. The “NEUTRALIZATION ACTIVITY (quantity of p24 present in the supernatant)” value with HIV-1 IIIB (guinea pig antiserum, 6 month bleed) was 800 ng/mL; in the experiment with HIV-1 IIIB (rows marked + : guinea pig antiserum, 2-5 month bleed) it was more than 800 ng/mL. Further, the “FUSION ASSAY (number of giant cells formed)” value in experiment [1] (guinea pig antiserum, 6 month bleed, two counts per cell separated by a comma (no decimal)) is listed as 63,66; in experiment [1] (rows marked + : guinea pig antiserum, 2-5 month bleed, two counts separated by a comma) it was 54,53. For the same substance, in experiment [2] (positive = ELISA absorbance greater than 0.2), the “HIV SEROPOSITIVE SERA Number of Peptide ELISA Positive Sera of 37 Tested” value is on record as 14. Further, the “HIV SEROPOSITIVE SERA Positive Sera Average Absorbance ± SD” value in experiment [2] (positive = absorbance greater than 0.2) is recorded as 0.34 ± 0.24.
